ChEMBL document CHEMBL1145292, “Synthesis and activity of novel bile-acid conjugated glucocorticoid receptor antagonists” (Bioorg Med Chem Lett, 2006)

How the values were obtained:
Glucocorticoid receptor [1] = target: T1, Glucocorticoid receptor (Homo sapiens, UniProt P04150); assay: Binding affinity to human GR
T1 sequence (P04150 whole entry): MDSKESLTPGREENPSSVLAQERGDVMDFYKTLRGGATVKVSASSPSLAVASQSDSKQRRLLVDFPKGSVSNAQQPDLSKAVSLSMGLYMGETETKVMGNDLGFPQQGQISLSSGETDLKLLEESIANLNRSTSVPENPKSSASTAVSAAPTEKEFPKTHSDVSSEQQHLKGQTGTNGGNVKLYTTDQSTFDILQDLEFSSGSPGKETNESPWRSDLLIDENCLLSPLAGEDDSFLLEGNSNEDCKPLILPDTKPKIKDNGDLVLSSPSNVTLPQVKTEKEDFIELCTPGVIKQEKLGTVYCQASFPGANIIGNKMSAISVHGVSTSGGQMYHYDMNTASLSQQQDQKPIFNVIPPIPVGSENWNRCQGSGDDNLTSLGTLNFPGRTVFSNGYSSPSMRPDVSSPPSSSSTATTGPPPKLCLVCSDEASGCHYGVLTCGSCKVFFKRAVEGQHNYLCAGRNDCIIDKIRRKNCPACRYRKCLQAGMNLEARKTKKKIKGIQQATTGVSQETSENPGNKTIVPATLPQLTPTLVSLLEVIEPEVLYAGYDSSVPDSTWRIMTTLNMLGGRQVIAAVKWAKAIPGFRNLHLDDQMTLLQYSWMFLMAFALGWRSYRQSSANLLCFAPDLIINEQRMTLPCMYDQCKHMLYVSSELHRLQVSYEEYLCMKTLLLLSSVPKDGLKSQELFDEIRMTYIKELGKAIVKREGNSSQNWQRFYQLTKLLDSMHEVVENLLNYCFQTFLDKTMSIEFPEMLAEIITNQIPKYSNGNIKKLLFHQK

Glucocorticoid receptor [2] = target: T1, Glucocorticoid receptor; assay: Activity at GR expressed in CHO cells assessed as decrease in dexamethasone-stimulated alkaline phosphatase production by GRAF assay; format: cell-based
[3] = Protein binding in rat plasma; format: ADME, cell-free; conditions: read-out: PPB (converted)
[4] = Stability in rat liver microsomes after 20 mins; format: ADME, Microsome; conditions: read-out: Stability
Rattus norvegicus [5] = assay: Inhibition of prednisilone-induced lymphopenia in Sprague-Dawley rat at 100 mg/kg, po; format: functional
[6] = Plasma concentration in Sprague-Dawley rat after 7 hrs at 100 mg/kg, po; format: ADME, organism-based; set-up: dose 100 mg/kg, route oral
Rattus norvegicus [7] = assay: Inhibition of prednisilone-induced glycogen deposition in Sprague-Dawley rat at 100 mg/kg, po; format: functional
Rattus norvegicus [8] = assay: Inhibition of prednisilone-stimulated TAT production in Sprague-Dawley rat at 100 mg/kg, po; format: functional
Rattus norvegicus [9] = assay: Liver concentration in Sprague-Dawley rat after 7 hrs at 100 mg/kg, po; format: ADME, organism-based; set-up: dose 100 mg/kg, route oral; conditions: in vivo

SMILES | IC50 (Glucocorticoid receptor [1]) [nM] | IC50 (Glucocorticoid receptor [2]) [nM] | remaining at 20 min [4] [%] | fraction unbound [3] | inhibition in vivo at 100 mg/kg (Rattus norvegicus [5]) [%] | concentration at 7 h [6] [µM] | inhibition in vivo at 100 mg/kg (Rattus norvegicus [7]) [%] | inhibition in vivo at 100 mg/kg (Rattus norvegicus [8]) [%] | Drug uptake (Rattus norvegicus [9]) [%]
CC#C[C@]1(O)CC[C@H]2[C@@H]3CCC4=CC(=O)CCC4=C3[C@@H](c3ccc(N(C)CCO[C@H]4CC[C@@]5(C)[C@@H](C4)C[C@@H](O)[C@@H]4[C@@H]5C[C@H](O)[C@]5(C)[C@@H]([C@H](C)CCC(=O)O)CC[C@@H]45)cc3)C[C@@]21C | 1.2 | 10 | 98 | 0.041 | 9 | 4.5 | 86 | 72 | 26.5
CC#C[C@]1(O)CC[C@H]2[C@@H]3CCC4=CC(=O)CCC4=C3[C@@H](c3ccc(OC)cc3C)C[C@@]21C | 9 | 32 | – | – | – | – | – | – | –
CC#C[C@]1(O)CC[C@H]2[C@@H]3CCC4=CC(=O)CCC4=C3[C@@H](c3cc(OC)c(OC)c(OC)c3)C[C@@]21C | 60.7 | – | – | – | – | – | – | – | –
CC#C[C@]1(O)CC[C@H]2[C@@H]3CCC4=CC(=O)CCC4=C3[C@@H](c3c(F)cc(OC)cc3OC)C[C@@]21C | 6.1 | 43 | – | – | – | – | – | – | –
CC#C[C@]1(O)CC[C@H]2[C@@H]3CCC4=CC(=O)CCC4=C3[C@@H](c3ccc(OC)cc3)C[C@@]21C | 0.9 | 7.6 | – | – | – | – | – | – | –
CC#C[C@]1(O)CC[C@H]2[C@@H]3CCC4=CC(=O)CCC4=C3[C@@H](c3cc(F)c(OC)cc3F)C[C@@]21C | 3.2 | 15 | – | – | – | – | – | – | –
CC#C[C@]1(O)CC[C@H]2[C@@H]3CCC4=CC(=O)CCC4=C3[C@@H](c3ccc(Oc4ccccc4)cc3)C[C@@]21C | 1.5 | 18.8 | – | – | – | – | – | – | –
C=CCOc1c(C)cc([C@H]2C[C@@]3(C)[C@@H](CC[C@@]3(O)C#CC)[C@@H]3CCC4=CC(=O)CCC4=C32)cc1Cl | 1.5 | 20.9 | – | – | – | – | – | – | –
CC#C[C@]1(O)CC[C@H]2[C@@H]3CCC4=CC(=O)CCC4=C3[C@@H](c3c(OC)cc(OC)cc3OC)C[C@@]21C | 481 | – | – | – | – | – | – | – | –
CC#C[C@]1(O)CC[C@H]2[C@@H]3CCC4=CC(=O)CCC4=C3[C@@H](c3ccc(OCCO[C@H]4CC[C@@]5(C)[C@@H](C4)C[C@@H](O)[C@@H]4[C@@H]5C[C@H](O)[C@]5(C)[C@@H]([C@H](C)CCC(=O)O)CC[C@@H]45)c(C)c3)C[C@@]21C | 3.1 | 30.7 | 95 | 0.017 | 20 | 4.5 | 0 | 31 | 22.2
CC#C[C@]1(O)CC[C@H]2[C@@H]3CCC4=CC(=O)CCC4=C3[C@@H](c3cc(C)c(OCCO[C@H]4CC[C@@]5(C)[C@@H](C4)C[C@@H](O)[C@@H]4[C@@H]5C[C@H](O)[C@]5(C)[C@@H]([C@H](C)CCC(=O)O)CC[C@@H]45)c(C)c3)C[C@@]21C | 4.9 | 200 | – | – | 0 | – | 12 | 0 | –
CC#C[C@]1(O)CC[C@H]2[C@@H]3CCC4=CC(=O)CCC4=C3[C@@H](c3ccc(-c4ccc(OCCO[C@H]5CC[C@@]6(C)[C@@H](C5)C[C@@H](O)[C@@H]5[C@@H]6C[C@H](O)[C@]6(C)[C@@H]([C@H](C)CCC(=O)O)CC[C@@H]56)cc4)cc3)C[C@@]21C | 2.5 | 23.5 | 100 | – | 40 | – | 51 | 44 | –
CC#C[C@]1(O)CC[C@H]2[C@@H]3CCC4=CC(=O)CCC4=C3[C@@H](c3ccc(O)c(C)c3)C[C@@]21C | 4.5 | 28.6 | – | – | – | – | – | – | –
CC#C[C@]1(O)CC[C@H]2[C@@H]3CCC4=CC(=O)CCC4=C3[C@@H](c3ccc(N(C)C)cc3)C[C@@]21C [MIFEPRISTONE] | – | – | 70 | 0.044 | 104 | 3.9 | 77 | 101 | 26.5

Further lines, with some results ahead:

IC50 (Glucocorticoid receptor [1]) [nM] | IC50 (Glucocorticoid receptor [2]) [nM] | remaining at 20 min [4] [%] | SMILES | fraction unbound [3] | inhibition in vivo at 100 mg/kg (Rattus norvegicus [5]) [%] | concentration at 7 h [6] [µM] | inhibition in vivo at 100 mg/kg (Rattus norvegicus [7]) [%] | inhibition in vivo at 100 mg/kg (Rattus norvegicus [8]) [%] | Drug uptake (Rattus norvegicus [9]) [%]
0.6 | 1.8 | – | CC#C[C@]1(O)CC[C@H]2[C@@H]3CCC4=CC(=O)CCC4=C3[C@@H](c3ccc(SC)cc3)C[C@@]21C | – | – | – | – | – | –
0.7 | 4.2 | 96 | CC#C[C@]1(O)CC[C@H]2[C@@H]3CCC4=CC(=O)CCC4=C3[C@@H](c3ccc(-c4ccc(OC)cc4)cc3)C[C@@]21C | – | – | – | – | – | –
0.7 | 10.1 | – | CC#C[C@]1(O)CC[C@H]2[C@@H]3CCC4=CC(=O)CCC4=C3[C@@H](c3c(F)cc(OC)cc3F)C[C@@]21C | – | – | – | – | – | –
0.4 | 2.8 | – | CC#C[C@]1(O)CC[C@H]2[C@@H]3CCC4=CC(=O)CCC4=C3[C@@H](c3cc(C)c(OC)c(C)c3)C[C@@]21C | – | – | – | – | – | –
0.1 | 1.1 | 87 | CC#C[C@]1(O)CC[C@H]2[C@@H]3CCC4=CC(=O)CCC4=C3[C@@H](c3ccc(OC)c(C)c3)C[C@@]21C | – | 67 | 4.8 | – | 97 | 18.1
0.4 | 4.7 | – | C=CCOc1ccc([C@H]2C[C@@]3(C)[C@@H](CC[C@@]3(O)C#CC)[C@@H]3CCC4=CC(=O)CCC4=C32)cc1Cl | – | – | – | – | – | –
